US10716768B2, “Method for treating abnormal B-amyloid aggregation mediated diseases” (NATIONAL TAIWAN NORMAL UNIVERSITY, priority 2016, dated 2020)

Legend:
[1] = system: Aβ aggregation in Tet-On Aβ-GFP Flp-In 293 cells; assay: Inhibition of abnormal β-amyloid aggregation test (GFP fluorescence, high-content analysis); type: cell-based, human; conditions: for GFP fluorescence: untreated 100%
Description: GFP fluorescence was used to reflect Aβ aggregation status as Aβ aggregated to cause the fused GFP misfolded, and thus cause the reduction of fluorescence on Aβ-GFP expressing cells. Inhibition of Aβ aggregation may improve GFP misfolding and lead to increased fluorescence on Aβ-GFP expressing cells. […] Then doxycycline (Dox) (2 μg/mL) was added to the cells for 64 hours to induce the Aβ-GFP expression, and GFP fluorescence was assessed by a high-content analysis (HCA) system (ImageXpressMICRO, available from Molecular Devices). The experiment also tested the inhibition effect of Aβ aggregation by curcumin (1-10 μM) and licochalcone A (0.001-100 μM). In the experiment, the amount of fluorescence measured in the untreated group (untreated with compounds) was 100%, and the sample number of each group was n=3.

[2] = MTT cytotoxicity test, un-induced cells; type: cell-based, human; conditions: human
Description: (§1) This experiment was to test the toxicity of compounds (I-1), (I-2), (I-3), (I-4), and (I-5) to un-induced Tet-On Aβ-GFP Ftp-In 293 and SH-SY5Y cells. Un-induced Tet-On Aβ-GFP Flp-In 293 and SH-SY5Y cells were treated with compounds (I-1), (I-2), (I-3), (I-4), and (I-5) in different concentrations from 0.1 to 100 μM for 24 hours, followed by conducting MTT assay to test the cytotoxicity of the compounds. The experiment also tested the cytotoxicity of licochalcone A (0.1-100 μM) and curcumin (1-10 μM) to the un-induced Tet-On Aβ-GFP Flp-In 293 and SH-SY5Y cells. In the experiment, the relative cellular survival rate of untreated cells was 100%, the half maximal inhibitory concentration (IC50) of each compound was calculated by using interpolation, and the sample number of each group was n=3.

[3] = Solubility test in cell culture medium; type: physicochemical; conditions: plasma or biological fluid, vortex mixing, centrifugation five minutes at 13,000 g, read-out: solubility in cell culture medium (completely soluble up to)
Description: This experiment was to test the solubility of compound (I-1), compound (I-2), compound (I-3), compound (I-4), and compound (I-5) in cell culture medium. After vortex mixing and centrifugation for five minutes at 13,000 g, the compounds were completely soluble in the cell culture medium up to 100 μM.

[4] = Cytotoxicity of induced cells, propidium iodide staining and flow cytometer; type: cell-based, human; conditions: human
[5] = system: un-induced Tet-On Aβ-GFP Flp-In 293 and SH-SY5Y cells; assay: MTT cytotoxicity test, un-induced cells; type: cell-based, human; conditions: MTT, 24 hours; range over un-induced Flp-In 293 (FIG. 1A) and SH-SY5Y (FIG. 1B) cells
Description: as §1

[6] = system: Tet-On Aβ-GFP Flp-In 293 cells; assay: Cytotoxicity of induced cells, propidium iodide staining and flow cytometer; type: cell-based, human; conditions: induced cells, PI staining, flow cytometer (FIG. 3C)
[7] = 0.001-1 μM, cell survival rate more than 80%
[8] = 0.001-10 μM, cell survival rate more than 80%

COc1ccc(C(=O)/C=C/c2cc(Br)ccc2O)cc1 [Compound (I-1)]
GFP fluorescence ([1]; 0.001-0.1 μM, cell survival rate more than 80%): 103-111% | IC50 at 24 h [2]: 8 to 51 µM | solubility [3]: ≥ 100 µM | IC50 [4]: 47.7 µM

COc1ccc(O)c(/C=C/C(=O)c2ccccc2)c1 [Compound (I-2)]
GFP fluorescence [1, 7]: 105-112% | IC50 at 24 h [2]: 10 to 51 µM | solubility [3]: ≥ 100 µM | IC50 [4]: 57.5 µM

Cc1ccc(/C=C/C(=O)c2c(O)c3ccccc3oc2=O)cc1 [Compound (I-3)]
GFP fluorescence [1, 8]: 103-117% | IC50 at 24 h [2]: ≥ 55 µM | solubility [3]: ≥ 100 µM | IC50 [4]: 80.6 µM

COc1cccc(/C=C/C(=O)c2ccc(O)cc2)c1O [Compound (I-4)]
GFP fluorescence ([1]; 0.01-1 μM, cell survival rate more than 80%): 102-105% | IC50 at 24 h [2]: 45 to 71 µM | solubility [3]: ≥ 100 µM | IC50 [4]: 60.9 µM

O=C(c1ccccc1)c1cc2c(O)cccc2oc1=O [Compound (I-5)]
GFP fluorescence [1, 8]: 107-125% | IC50 at 24 h [2]: > 100 µM | solubility [3]: ≥ 100 µM | IC50 [4]: 95.1 µM

COc1cc(/C=C/C(=O)CC(=O)/C=C/c2ccc(O)c(OC)c2)ccc1O [curcumin, reference compound]
cell number ([1]; curcumin 2.5 μM and 5 μM): more than 80 % of untreated cells | GFP fluorescence ([1]; curcumin 2.5 μM and 5 μM): 107-120% | IC50 at 24 h [2]: > 10 µM

C=CC(C)(C)c1cc(/C=C/C(=O)c2ccc(O)cc2)c(OC)cc1O [licochalcone A, reference compound]
GFP fluorescence [1, 7]: 105-115% | IC50 [5]: 47 to 51 µM | IC50 [6]: 62.3 µM
